This experiment has as its system CEM cells HIV-1 protection, formazan growth assay. The experiment is described as follows: NCI AIDS Antiviral Assay. The conditions noted are these: for IC50: measured here: growth of uninfected CEM cells. In outline: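 Human CEM cells, uninfected and HIV-1-infected, exposed to five drug concentrations; growth measured by soluble formazan assay and scored as percent protection from infection, with protecting compounds retested.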

The values that follow come from PubChem BioAssay AID179 (DTP/NCI, 2004).

Structures are written as SMILES. Values joined by “and” are separate entries in the source; they are usually repeats but may differ in a detail not shown here. Equal values may be shown once. Active and inactive are the calls of the source.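 Rule for the calls: active = compounds giving half or more protection of infected cells from virus-caused growth loss, again on retest; inactive = the rest.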

Regarding `O=C(O)c1cc(O)cc(O)c1N=Nc1ccc(/C=C/c2ccc(N=Nc3c(O)cc(O)cc3C(=O)O)cc2)cc1`, the EC50 – broadly, the concentration needed to bring the measured effect to its halfway point – was 70.8 µM and 25.1 µM; the IC50 (in general, the concentration needed to halve the response being measured) is 132 µM and > 100 µM.
Regarding `CC(C)C1CCC/C=C/C=C/C=C/C=C/C(OC2OC(C)C(O)C(N)C2O)CC2OC(O)(CC(O)CC(O)C(O)CCC(=O)O1)CC(O)C2C(=O)O` (stereo not given), the EC50 is over 339 µM and the IC50 is over 339 µM.
On to `CC(C)/C(Cl)=N\OC(=O)Nc1cccc(Cl)c1`, for which the EC50 was over 200 µM and the IC50 turned out to be 5.01 µM.
The corresponding values for `Clc1ccc(OCc2nnc(CCCCCCCCc3nnc(COc4ccc(Cl)cc4Cl)o3)o2)c(Cl)c1` are over 200 µM and 129 µM.
In the same order, the values of `OCC1OC(NC(=S)NCSCCC(F)(F)C(F)(F)C(F)(F)C(F)(F)C(F)(F)C(F)(F)F)C(O)C(O)C1O` (stereo not given) are over 200 µM and 7.24 µM.
Turning to `N#Cc1nc(Cc2ccccc2)oc1N`, the outcome was inactive.
`COc1cccc(C2CC(=O)c3cccn32)c1` (stereo not given): the result was inactive.
Regarding `CC1=CP(=O)(c2ccccc2)CC1` (stereo not given) (tested in a mixture with another compound), the EC50 was over 646 µM and the IC50 is over 646 µM.
On to `Cn1c2ccccc2c2c(=O)[nH]c(=O)[nH]c21`, for which the EC50 was over 200 µM and the 50% inhibitory concentration (IC50) was over 200 µM.
Regarding `Cc1cc(S(=O)(=O)NC2=NC(c3ccccc3)c3cc(Cl)ccc3N2)c(S)cc1Cl` (stereo not given), the EC50 was over 200 µM and the half-maximal inhibitory concentration (IC50) was over 200 µM.
With `CCOC(=O)NC(C(F)(F)F)(C(F)(F)F)P(=O)(OCC(C)C)OCC(C)C`, the EC50 is over 200 µM and the IC50 turned out to be 5.37 µM.
Consider `O=C(O)CCSC(=O)Nc1ccccc1`, for which the result was inactive.
As for `COC(=O)/C=C1\C(CO[Si](C)(C)C(C)(C)C)OC(n2cc(C)c(=O)[nH]c2=O)C1O[Si](C)(C)C(C)(C)C` (stereo not given), the EC50 was over 200 µM and the IC50 was 7.08 µM.
For the compound `N/C(=N/N=C/C1CCCCC1)NO`, the result was inactive.
Consider `CCOC(=O)/C(C#N)=c1/s/c(=C(\O)N/N=C/c2ccc(OC)cc2)c(=N)n1-c1ccccc1`, for which the EC50 is over 4.27 µM and the IC50 was over 4.27 µM.
`CCN(C(=S)N[C@H](C(=O)N[C@@H](C)C(=O)OC)C(C)C)c1ccccc1`: the EC50 was 0.575 µM and the half-inhibitory concentration (IC50) stood at 29.5 µM.
`NS(=O)(=O)c1ccc(N=NC2Sc3nc4ccccc4n3C2=O)cc1` (stereo not given): the outcome was inactive.
On the same count and under the same terms, the result for `CC1(C)C2CCC1(C)C(Cl)([N+](=O)[O-])C2` (stereo not given) reads “inactive”.
In the case of `COC(=O)c1sc(C(=O)OC)c2c1CS(=O)C2`, the outcome was inactive.
The same measure, in the same setting: to `O=CNc1ccc(S(=O)(=O)c2ccc(NC=O)cc2)cc1` belongs “inactive”.
Regarding `N#Cc1sc2c(c1OC(=O)c1cccs1)c(=O)n(-c1ccccc1)c(=S)n2-c1ccccc1`, the EC50 is over 200 µM and the IC50 is 6.03 µM.
Turning to `CCOC(=O)c1nc(SC)sc1NC(=O)c1ccc([N+](=O)[O-])cc1`, the EC50 was over 200 µM and the IC50 was over 200 µM.
Regarding `CCCCc1ccc(Nc2nc3c(ncn3COCCBr)c(=O)[nH]2)cc1`, the EC50 is over 200 µM and the IC50 was over 200 µM.
Regarding `Cc1csc(=Nc2ccccc2)n1CCC(O)(P(=O)(O)O)P(=O)(O)O`, the EC50 is over 200 µM and the IC50 stood at 9.55 µM.
In the same order, the values of `Oc1ccc(-c2nc(-c3ccccc3)c(-c3ccccc3)[nH]2)cc1` are over 200 µM and 26.9 µM.
In the same order, the values of `CCCCC/C=C\CCC/C=C\CCCCCCOP(=O)(O)OCCC=C(c1cc(Cl)c(O)c(C(=O)O)c1)c1cc(Cl)c(O)c(C(=O)O)c1` are over 126 µM and 83.2 µM.
In the same order, the values of `COc1cc(C2C3=C(N=C4SC(C(C)=O)=C(C)N42)c2ccccc2CC3)cc(OC)c1OC` (stereo not given) are over 200 µM and 40.7 µM.
In the case of `O=[N+]([O-])c1ccc(OCn2ncc3ccc([N+](=O)[O-])cc32)cc1`, the EC50 was over 200 µM and the IC50 was over 200 µM.
Regarding `Cc1nnc2sc3c(Cl)c4nn5c(C)nnc5sc4c(Cl)c3nn12`, the EC50 is over 200 µM and the IC50 came out at 2.95 µM.
The corresponding values for `O=C1OC[C@H]2[C@@H]1[C@H]1O[C@@H]2C2=C(CCC2)C1=O` are over 200 µM and over 200 µM.
In the same order, the values of `Cc1c(Cc2ccccc2)n(C(C)OCCN(O)C(N)=O)c(=O)[nH]c1=O` (stereo not given) are over 200 µM and over 200 µM.
Take `NCCCNCCSSC/C=C\CSSCCNCCCN`: the outcome was inactive.
Turning to `Nc1cc2c3c(c1)Oc1cc(N)cc4c1C3c1c(cc(N)cc1O4)O2`, the EC50 is over 30.9 µM and the IC50 was found to be 23.4 µM.
For the compound `Cc1cn(C2CCC(=O)C2)c(=O)[nH]c1=O` (stereo not given), the result was inactive.
Take `NC(=O)c1nnc2ccc(F)cc2c1N`: the EC50 is over 200 µM and the IC50 stood at 70.8 µM.
In the same order, the values of `CCCCNCC(=O)O[C@]1(CC)C(=O)OCc2c1cc1n(c2=O)Cc2cc3ccccc3nc2-1` are over 10 µM and 0.0776 µM.
With `Cc1ccc(C)c(NC(=O)CCc2nc(=S)[nH][nH]2)c1`, the result was inactive.
For the compound `COc1ccc(C2Oc3cc(OC)c(OC)cc3C2CCl)cc1OC` (stereo not given), the EC50 is over 200 µM and the IC50 was 107 µM.
In the same order, the values of `COC(=O)[C@@H]1CN(C(=O)c2ccccc2)C(=O)N1` are over 200 µM and over 200 µM.
`COCCN1CC(=O)N2Cc3ccccc3CN2C(=O)C1`: the outcome was inactive and the IC50 is over 200 µM.
With `CC1(C)OC(=C(C#N)C#N)C(C#N)=C1/C=C/c1ccncc1`, the EC50 is over 151 µM and the IC50 was determined as 0.813 µM.
`CCC(C)C(=Nc1ccc(Cl)c(Cl)c1)N(C)C` (stereo not given): the result was inactive.
For `COC(=O)c1cc(C(c2cc(C(=O)OC)c(OC)c(Br)c2C)C(Cl)(Cl)Cl)c(C)c(Br)c1OC`, the EC50 was over 200 µM and the IC50 amounted to 25.7 µM.
The corresponding values for `CC(=O)O[C@@H]1CC[C@@]2(C)C(CC[C@H]3[C@@H]4CC[C@H]([C@H](C)CCc5nc6ccc(C)cc6[nH]5)[C@@]4(C)CC[C@@H]32)C1` (stereo not given in full) are over 200 µM and 16.6 µM.
Take `CC(=O)/C=C/c1ccc(C2CC(C)=Nc3c(ccc4c3C(=O)c3ccccc3C4=O)N2)cc1` (stereo not given): the EC50 was over 6.31 µM and the IC50 is over 6.31 µM.
For the compound `CN(C)C(=O)c1nc(CNC(=O)CN)n(-c2ccc(Cl)cc2C(=O)c2ccccc2)n1`, the EC50 was over 200 µM and the IC50 is over 200 µM.
On to `COC(=O)C1Cc2c([nH]c3ccccc23)C(C2CCCCC2)N1` (stereo not given), for which the outcome was inactive.
`S=P1(Oc2ccccc2)NNP2(=NP(N3CC3)(N3CC3)=NP(N3CC3)(N3CC3)=N2)NN1` (stereo not given): the EC50 is over 50.1 µM and the IC50 stood at 5.13 µM.
In the same order, the values of `CC(C)(C)NC(=O)CCC1C(C(=O)NC(C)(C)C)C2(Cl)C(Cl)=C(Cl)C1(Cl)C2(Cl)Cl` (stereo not given) are over 200 µM and over 200 µM.
In the same order, the values of `Cc1c(-c2ccc(N)cc2)c(=O)oc2cc(O)ccc12` are over 200 µM and over 200 µM.
As to `COc1ccccc1/C=C1\Sc2scc(-c3cccc([N+](=O)[O-])c3)[n+]2C1=O`, the outcome was inactive.
Consider `O=C(O)c1nn(-c2ccccc2)c2c1CSc1ccccc1-2`, for which the EC50 was over 200 µM and the IC50 is 158 µM.
On to `COc1ccc(C(=O)C2CC3(CCC2(O)c2ccc(OC)cc2)CC(=O)Nc2ccccc2C3=O)cc1` (stereo not given), for which the EC50 is over 200 µM and the IC50 came to 72.4 µM.
Turning to `Cc1ccc(C(=O)Nc2ccc(CP(=O)(O)O)cc2)cc1NC(=O)Nc1cc(C(=O)Nc2ccc(CP(=O)(O)O)cc2)ccc1C`, the EC50 was over 50.1 µM and the concentration for half-maximal inhibition (IC50) is over 50.1 µM.
In the case of `O=C(O)CN(CCO)CCN(CC(=O)O)CC(=O)O.[Fe+2]`, the EC50 was over 200 µM and the IC50 was over 200 µM.
In the case of `NC(CNC(=O)CBr)C(=O)O` (stereo not given), the EC50 is over 813 µM and the IC50 is 155 µM.
`CCOc1ccc(N)c(S)c1`: the EC50 is over 200 µM and the IC50 is 26.9 µM.
The corresponding values for `O=C(Nc1nc2ccccc2n1Cc1ccc(Cl)cc1)NC12CC3CC(CC(C3)C1)C2` are over 200 µM and over 200 µM.
Regarding `NC(CSSCC(NC(=O)c1ccccc1)C(=O)O)C(=O)O` (stereo not given), the EC50 was over 200 µM and the IC50 was over 200 µM.
As for `c1ccc(N2CC3CSc4ccc5ccccc5c4C3=N2)cc1` (stereo not given), the EC50 is over 200 µM and the IC50 was over 200 µM.
With `CCOC(=O)N1CCN(Cc2cc(=O)n3ccc(C)cc3n2)CC1`, the EC50 was over 200 µM and the IC50 was over 200 µM.
Take `NC(C(=O)O)/C1=C/CCCCCC1` (stereo not given): the EC50 was over 200 µM and the IC50 was over 200 µM.
As to `c1ccc2c(c1)Sc1nccc3ccnc-2c13`, the EC50 is over 200 µM and the IC50 worked out at 13.8 µM.
Regarding `O=C1C2C3CC4C5C3C1C5C1(SCCS1)C42` (stereo not given), the result was inactive.
Consider `CC(=O)NNc1nc(C)c(C(/C=C/c2cccc([N+](=O)[O-])c2)=N/NC(=S)NN)s1`, for which the EC50 is over 72.4 µM and the IC50 is over 72.4 µM.
Regarding `Clc1ccc(N=Nc2nc3ccccc3nc2N=Nc2ccc(Cl)cc2Cl)c(Cl)c1`, the EC50 is over 0.794 µM and the IC50 was over 0.794 µM.
On to `c1ccc(COCC2OC3c4ccccc4COC3C2OCc2ccccc2)cc1` (stereo not given), for which the result was inactive.
As for `NNC(=O)c1cc(=O)[nH][nH]1`, the EC50 is over 200 µM and the IC50 is over 200 µM.
For `CC1=C(C#N)C2C(=C(N)Oc3ccccc32)C(N)=N1` (stereo not given), the EC50 was over 200 µM and the IC50 amounted to 27.5 µM.
The corresponding values for `CC(=O)NC(CCCCN(Cc1ccccc1)C(=O)NCCCl)C(=O)NCc1ccccc1` (stereo not given) are over 525 µM and 355 µM.
In the same order, the values of `Cc1n(Cc2ccccc2)nc2sc(N)n[n+]12` are over 200 µM and 64.6 µM.
The corresponding values for `Cc1ccc2c(c1CCCC(C)(C)O)C(=O)C(=O)C(C(C)C)=C2O` are over 380 µM and 132 µM.
As to `CN1C(=O)C2(Nc3ccccc3N2)c2ccccc21`, the EC50 was over 70.8 µM and the IC50 is over 70.8 µM.
